Drawing on the supplement of paper PMC4862054, this text covers normalised response for 16 compounds.

SMILES strings stand for the structures.

Holding throughout (experiment): normalised response (% of control), CellTiter-Glo; higher = more viable cells (100 = DMSO, 0 = benzethonium chloride kill control)
Common to all, as to details: incubation time: 72 h

Experiment [1] relates to BT-474. Summed up: (§1)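 Breast cancer cell lines (20 µl suspension) were seeded into 384-well plates holding compound at 5 concentrations in 10-fold steps over a compound-specific 10,000-fold range, then incubated 72 h. CellTox Green fluorescence (485/520 nm) was read first, then CellTiter-Glo luminescence after 10 min at room temperature. Each plate was normalised to 0.1 % DMSO (100) and a positive kill control (0). Each value is the normalised signal at a single concentration of the series.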

Experiment [2] has as its system BT-549. The procedure, abridged: as §1
The subject of experiment [3] is MDA-MB-231. Summed up:
as §1

Experiment [4] has as its system MDA-MB-436. Summed up: as §1
The subject of a further experiment is SK-BR-3. Summed up:
as §1

For experiment [5], the system named is BT-474. The procedure:
(§2)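 DSRT, 72 h incubation, CellTox Green / CellTiter-Glo readout. Signal is normalised to DMSO and benzethonium chloride controls. Value is the normalised response at the highest dose.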
The source holds these as a separate data set.

The test system of experiment [6] is BT-549. As for the experimental part: as §2
The source holds these as a separate data set.

The subject of the next experiment is CAL-120. The procedure: as §2
The next experiment relates to CAL-51. The procedure:
as §2

The subject of another experiment is CAL-85-1. As for the experimental part:
as §2

In the next experiment the test system is DU-4475. The procedure: as §2
Another experiment deals with HCC1143. As for the experimental part: as §2
In a further experiment the test system is HCC1599. As for the experimental part:
as §2

The test system of a further experiment is HCC1937. As for the experimental part: as §2
A further experiment deals with HDQ-P1. The procedure: as §2
Another experiment has as its system Hs578T. The procedure:
as §2

For experiment [7], the system named is MDA-MB-231. As for the experimental part: as §2
This is another data set of the same source.

Experiment [8] deals with MDA-MB-436. The procedure: as §2
This is another data set of the same source.

The test system of the next experiment is MDA-MB-453. As for the experimental part: as §2
The test system of a further experiment is MFM-223. As for the experimental part:
as §2

Regarding `Cc1ccc(-n2nc(C(C)(C)C)cc2NC(=O)Nc2ccc(OCCN3CCOCC3)c3ccccc23)cc1` [Doramapimod] (1000 nM), the normalised response in the experiment on BT-474 [1] was 86.1%; in the experiment on BT-549 [2] it was 99.6%; in the experiment on MDA-MB-231 [3], 83.7%; in the experiment on MDA-MB-436 [4], 105%; in the experiment on SK-BR-3, 80.8%.
The corresponding values for `O=C1CCC(N2C(=O)c3ccccc3C2=O)C(=O)N1` (stereo not given) [Thalidomide] (1000 nM) are 102%, 96.3%, 95.8%, 99.1% and 99.4%.
The corresponding values for `Cn1c(CCCC(=O)O)nc2cc(N(CCCl)CCCl)ccc21` [Bendamustine] (1000 nM) are 101%, 92.4%, 106%, 101% and 107%.
On to `C[C@@H](Oc1cc(-c2cnn(C3CCNCC3)c2)cnc1N)c1c(Cl)ccc(F)c1Cl` [Crizotinib] (1000 nM), for which the normalised response in the experiment on BT-474 [5] is 84.9%; in the experiment on BT-549 [6], 93.1%; in the experiment on CAL-120 it was 104%; with CAL-51 it was 108%; in the experiment on CAL-85-1, 92.7%; in the experiment with DU-4475, 103%. Moreover, the normalised response in the experiment on HCC1143 turned out to be 102%; in the experiment on HCC1599 it was 100%; with HCC1937, 101%; in the experiment on HDQ-P1, 90.7%; with Hs578T, 95.9%; with MDA-MB-231 [7], 83.9%. Moreover, the normalised response with MDA-MB-436 [8] is 102%; with MDA-MB-453, 92.2%; in the experiment with MFM-223, 97.4%.
Consider `CC1(C)NC(=O)N(c2ccc([N+](=O)[O-])c(C(F)(F)F)c2)C1=O` [Nilutamide] (1000 nM), for which the normalised response in the experiment on BT-474 [1] was 99.8%; in the experiment with BT-549 [2], 91.2%; in the experiment with MDA-MB-231 [3], 102%; in the experiment on MDA-MB-436 [4] it was 106%; in the experiment with SK-BR-3, 110%.
For `C[C@]12CC[C@@H]3c4ccc(O)cc4C[C@@H](CCCCCCCCC[S+]([O-])CCCC(F)(F)C(F)(F)F)[C@H]3[C@@H]1CC[C@@H]2O` (stereo not given in full) [Fulvestrant] (1000 nM), the normalised response in the experiment on BT-474 [5] was found to be 99%; in the experiment with BT-549 [6], 99.3%; with CAL-120 it was 105%; in the experiment with CAL-51 it was 124%; in the experiment on CAL-85-1, 95.4%; with DU-4475 it was 110%. Further, the normalised response in the experiment with HCC1143 turned out to be 106%; in the experiment on HCC1599, 103%; in the experiment with HCC1937, 94%; in the experiment with HDQ-P1, 101%; in the experiment on Hs578T, 103%; with MDA-MB-231 [7] it was 98.9%. In addition, the values for the normalised response with MDA-MB-436 [8], in the experiment with MDA-MB-453 and in the experiment with MFM-223 were 105%, 95.6% and 99.3%, respectively.
On to `C#Cc1cccc(Nc2ncnc3cc(OCCOC)c(OCCOC)cc23)c1` [Erlotinib] (1000 nM), for which the normalised response in the experiment on BT-474 [1] worked out at 96.3%; in the experiment with BT-549 [2], 100%; in the experiment with MDA-MB-231 [3] it was 102%; in the experiment with MDA-MB-436 [4] it was 99.9%; in the experiment on SK-BR-3, 97.5%.
`Clc1ccc(Nc2nnc(Cc3ccncc3)c3ccccc23)cc1` [Vatalanib] (1000 nM): the normalised response amounted to 95.2% in the experiment with BT-474 [1]; 100% with BT-549 [2]; 105% in the experiment with MDA-MB-231 [3]; 106% in the experiment on MDA-MB-436 [4]; 104% in the experiment on SK-BR-3.
The corresponding values for `CN(N=O)C(=O)N[C@@H](C=O)[C@@H](O)[C@H](O)[C@H](O)CO` [Streptozocin] (1000 nM) are 107%, 98.2%, 106%, 98.3% and 100%.
The corresponding values for `CO[C@H]1/C=C\C=C(/C)C(=O)NC2=CC(=O)C(NCCN(C)C)=C(C[C@@H](C)C[C@H](OC)[C@H](O)[C@@H](C)/C=C(\C)[C@@H]1OC(N)=O)C2=O` [Alvespimycin] (100 nM) are 36.1%, 33.7%, 26.5%, 46.6% and 44.1%.
The corresponding values for `COc1cc([C@@H]2c3cc4c(cc3[C@@H](O[C@@H]3O[C@@H]5CO[C@@H](C)O[C@H]5[C@H](O)[C@H]3O)[C@H]3COC(=O)[C@H]23)OCO4)cc(OC)c1O` [Etoposide] (1000 nM) are 93.2%, 76.7%, 94.7%, 67% and 67.7%.
Regarding `Cn1c(Nc2ccc(C(F)(F)F)cc2)nc2cc(Oc3ccnc(-c4ncc(C(F)(F)F)[nH]4)c3)ccc21` [RAF265] (100 nM), the normalised response in the experiment on BT-474 [1] was found to be 99.3%; with BT-549 [2], 91.1%; in the experiment on MDA-MB-231 [3], 104%; in the experiment on MDA-MB-436 [4] it was 89.8%; in the experiment on SK-BR-3 it was 92%.
Taken in the same sequence, the figures for `CN[C@@H]1C[C@H]2O[C@@](C)([C@@H]1OC)n1c3ccccc3c3c4c(c5c6ccccc6n2c5c31)C(=O)N[C@H]4O` [UCN-01] (1000 nM) were 12.4%, 17.8%, 7.91%, 27.5% and 22.3%.
Consider `N.N.[Cl][Pt][Cl]` [Cisplatin] (1000 nM), for which the normalised response with BT-474 [5] stood at 94%; with BT-549 [6], 101%; with CAL-120, 105%; in the experiment on CAL-51 it was 87.5%; with CAL-85-1 it was 104%; with DU-4475, 94.7%. Also, the normalised response was found to be 103% in the experiment on HCC1143; 101% with HCC1599; 106% with HCC1937; 95.3% in the experiment on HDQ-P1; 100% with Hs578T; 96.3% in the experiment on MDA-MB-231 [7]. The normalised response was determined as 100% in the experiment on MDA-MB-436 [8], 106% with MDA-MB-453 and 99.9% with MFM-223.
For the compound `C=C(c1ccc(C(=O)O)cc1)c1cc2c(cc1C)C(C)(C)CCC2(C)C` [Bexarotene] (1000 nM), the normalised response with BT-474 [1] came to 87.8%; in the experiment on BT-549 [2], 102%; in the experiment with MDA-MB-231 [3] it was 106%; in the experiment on MDA-MB-436 [4], 99.4%; in the experiment with SK-BR-3, 80%.
Taken in the same sequence, the figures for `CN(C)/N=N/c1[nH]cnc1C(N)=O` [Dacarbazine] (1000 nM) were 101%, 101%, 105%, 101% and 102%.
